Test results published in ChEMBL document CHEMBL1629472, “2-Acetylpyridine thiosemicarbazones: cytotoxic activity in nanomolar doses against malignant gliomas” (Eur J Med Chem, 2010).

How the values were obtained:
[1] = Cytotoxicity against erythrocytes assessed as hemolysis; assay type: cell-based; details: erythrocyte
[2] = Cytotoxicity against rat RT2 cells expressing wild type p53 after 48 hrs by MTT assay; assay type: functional, cell-based; details: RT2, 48 h
[3] = Cytotoxicity against human T98 cells expressing p53 mutant after 48 hrs by MTT assay; assay type: functional, cell-based; details: T98, 48 h

With `C/C(=N\NC(=S)Nc1ccc(Cl)cc1)c1ccccn1` the Hemolytic concentration [1] was > 1 mM, the IC50 [2] was 3.7 nM and the IC50 [3] was 5.9 nM.

For `C/C(=N\NC(=S)Nc1ccccc1Cl)c1ccccn1`, the Hemolytic concentration [1] was > 1 mM, the IC50 [2] was 1.4 nM and the IC50 [3] was 1.1 nM.

For `C/C(=N\NC(=S)Nc1cccc(Cl)c1)c1ccccn1`, the Hemolytic concentration [1] was > 1 mM, the IC50 [2] was 9 nM and the IC50 [3] was 1 nM.

For `C/C(=N\NC(=S)Nc1ccccc1C)c1ccccn1`, the Hemolytic concentration [1] was > 1 mM, the IC50 [2] was 14 nM and the IC50 [3] was 34 nM.

With `C/C(=N\NC(=S)Nc1cccc(C)c1)c1ccccn1` the Hemolytic concentration [1] was > 1 mM, the IC50 [2] was 24 nM and the IC50 [3] was 50 nM.

For `C/C(=N\NC(=S)Nc1ccc(C)cc1)c1ccccn1`, the Hemolytic concentration [1] was > 1 mM, the IC50 [2] was 17 nM and the IC50 [3] was 37 nM.

For `C/C(=N\NC(=S)Nc1ccccc1)c1ccccn1`, the Hemolytic concentration [1] was > 1 mM, the IC50 [2] was 1.4 nM and the IC50 [3] was 6.8 nM.
